Measured values: patent US11319300B2, “Polyfluoro-substituted aromatic heterocyclic derivative, pharmaceutical composition containing same, and applications thereof” (ZHEJIANG UNIVERSITY, priority 2017, dated 2022)

Experiments:
AKT1/PKBα = target: T1, AKT1/PKBα (Homo sapiens, UniProt P31749); experiment: Akt1 enzyme inhibitory activity, AKT1/PKBα KinEASE FP Fluorescein Green Assay; assay type: biochemical; conditions: fluorescence polarization kit assay; read-out: Akt1 IC50 (grade)
T1 construct: purchased
Description: Compound AZD5363 (NCT02208375, NCT02208375, NCT01625286), which have entered the clinical phase II study, was used as a positive control, and the compound was assayed against common tumour cell lines (human ovarian cancer cell line OVCAR-8 and human colon cancer cell line HCT-116) by MTT assay, at the same time, the akt1 enzyme inhibitory activity (IC50) was evaluated using a commercial Akt1 kit.
2) Test method for the inhibitory activity of the compound of the present invention against Akt1 enzyme:
The AKT1/PKBα KinEASE™ FP Fluorescein Green Assay (Kinase Green Fluorescence Detection System) was used to detect the inhibitory activity of the compound on AKT1/PKBα.
Fluorescence polarization detection protein kinase B employs the principle of a competitive reaction: a fluorescently labeled phosphorylated tracer and an unlabeled phosphorylated product produced by the reaction of protein kinase B will compete with the anti-serine antibody for binding. In a reaction mixture […], when a part of the fluorescent tracer binds to the antibody, it causes a higher polarization value. However, in the reaction solution mixture containing the phosphorylated product, less tracer binds to the antibody (the fluorescent tracer was replaced from the antibody) and the emitted signal was depolarized. Therefore, the change in polarization was directly related to the activity of protein kinase B in the reaction.
The compound of the present invention and the positive control AZD5363 were dissolved in dimethyl sulfoxide (DMSO) and diluted to a concentration of 50 μM. At room temperature, 0.25 μl of the compound sample and the positive control at a concentration of 50 μM were taken and added to the 384-well plate, and three parallel wells were set for each sample, and then 10 μl of STK Substrate 3, Working Solution, 5 μl AKT1/PKBα Working Solution, 10 μl ATP Working Solution were added to each sample well plate with vibrating gently and shaking for a few minutes. The reaction starts after 10 μl of ATP Working Solution was added to the well, and the reaction was timed at room temperature for 1 hour. After one hour, 5 μl of STK Stop Mix and 5 μl of STK Antibody Mix were added to each well respectively to stop the reaction. After the addition completes, it was allowed to stand at room temperature for four hours, and the polarization value of the sample was detected by the fluorescence polarization of the microplate reader (it was effective to detect its signal within 24 hours), and the inhibition rate of the compound was calculated by the polarization value, and then IC50 was calculated.
Four sets of controls were set in the experiment, namely Buffer Control Wells, Tracer Control Wells, No Enzyme Wells, and a blank dimethyl sulfoxide control. The resulting data was used to calculate the inhibition rate.
The activity of the compound was divided into three grades according to the size of the IC50 of the Akt inhibitory activity: “+++”, 1 nM<IC50<10 nM; “++”, 10 nM<IC50<50 nM; “+”, 50 nM<IC50.

HGC27 = experiment: Tumour cell proliferation inhibition, MTT assay, HGC27; assay type: cell-based, human; conditions: Homo sapiens, HGC-27, 72 h
CEM-C1 = experiment: Tumour cell proliferation inhibition, MTT assay, CEM-C1; assay type: cell-based, human; conditions: Homo sapiens, CEM/C1, 72 h
Akt2 = Akt2 (Homo sapiens, UniProt P31751); experiment: Kinase selectivity assay (Caliper), Akt2; assay type: biochemical; conditions: Akt2 versus Akt1
Description: (§1) A Sixty-Second Embodiment: Kinase Selectivity Assay Test Compound Configuration 1) DMSO was configured with 50× compound stock solution for use. 2) Each compound was diluted in a 96-well plate at a concentration gradient of 5 to 7 to ensure a drug volume of 10 μl per well, to 6 to 7 concentrations, while 100 μl of DMSO was added as a blank control group, and a negative control group without an enzyme substrate was added. 3) Another 96-well plate was prepared, and 10 μl of the above compound was added to 90 μl of 1×kinase base buffer and mixed for 10 min. The board to be tested was prepared: 1) Take a mixture of 5 μl to 384-well plates in a 96-well plate of the above configuration, and per compound has two replicate wells. Kinase Reaction: 1) Configurate a 2.5×kinase solution and add the corresponding 1×kinase base buffer; 2) Configurate a 2.5× polypeptide solution, add a FAM-labeled polypeptide and ATP in a 1×kinase base buffer; 3) 10 μl of 2.5× kinase solution was added to the 384-well plate to be tested, put at room temperature for 10 min, then 10 μl of 2.5× polypeptide solution was added, and after reacting at 28° C. for 1 h, 25 μl of reaction stop buffer was added. The Caliper program reads the plate and uses the data to obtain the IC50 value of the corresponding compound inhibiting kinase. […]

Akt3 = Akt3 (Homo sapiens, UniProt Q9Y243); experiment: Kinase selectivity assay (Caliper), Akt3; assay type: biochemical; conditions: Akt3 versus Akt1
Description: as §1

PKA = PKA (Homo sapiens, UniProt P17612); experiment: Kinase selectivity assay (Caliper), PKA; assay type: biochemical; conditions: PKA versus Akt1
Description: as §1

PKC = experiment: Kinase selectivity assay (Caliper), PKC; assay type: biochemical; conditions: PKC versus Akt1
Description: as §1

hERG potassium channel = target: T2, hERG potassium channel (Homo sapiens, UniProt Q12809); experiment: hERG potassium channel inhibition, manual whole-cell patch clamp in CHO hERG cells; assay type: cell-based; conditions: 3 μM, CHO hERG cells, patch clamp
T2 construct: host or cells: CHO
Description: A Sixty-Third Embodiment: hERG Potassium Channel Inhibition Activity Experiment
The cells used in this assay were CHO cell lines transfected with hERG cDNA and stably expressing the hERG channel (supplied by Sophion Bioscience, Denmark). The cells were cultured in medium containing the following components (all from Invitrogen): Ham's F12 medium, 10% (v/v) inactivated fetal bovine serum, 100 μg/ml hygromycin B, and 100 μg/ml Geneticin. 2.1.2CHO hERG cells were grown in a Petri dish containing the above culture solution, and cultured in an incubator containing 5% of CO2 at 37° C. 24 to 48 hours prior to electrophysiological experiments, CHO hERG cells were transferred to circular glass slides placed in petri dishes and grown under the same culture and culture conditions as above. The density of CHO hERG cells on each circular slide requires that most cells achieve independent, individual requirements.
2. Compound Treatment and Dilution
To obtain the IC50 of the compound, we selecte the following concentrations (30, 10, 3, 1, 0.3, and 0.1 μM) for testing. Prior to testing, the […] were first diluted to 10, 3, 1, 0.3, and 0.1 mM stock solution in gradual dilution with DMSO and then diluted to the final μM test concentration with extracellular fluid. The final concentration of DMSO in each of the other compound solutions was 0.1% except that the DMSO concentration in the 30 μM compound test solution was 0.3%. The positive control Cisapride (cishabili) was tested at a concentration of 0.1 μM. All compound solutions were sonicated and shaken for 5 to 10 minutes to ensure complete dissolution of the compound.
3. Electrophysiological Recording System and Data Analysis
This experiment uses a manual patch clamp system (HEKA EPC-10 signal amplifier and digital conversion system, purchased from HEKA Electronics, Germany) for the recording of whole cell currents. Round slide with CHO hERG cells on the surface was placed in an electrophysiology recording cell under an inverted microscope. The extracellular fluid was continuously perfused in the recording tank (about 1 ml per minute). The experimental procedure uses conventional whole-cell patch clamp current recording techniques. Unless otherwise stated, the experiments were carried out at regular room temperature (˜25° C.). The cells were clamped at a voltage of −80 mV. The cell clamp voltage was depolarized to +20 mV to activate the hERG potassium channel, and after 5 seconds it was clamped to −50 mV to eliminate inactivation and generate tail current. The tail current peak was used as the value of the hERG current magnitude. After the hERG potassium current recorded in the above step was stabilized under the continuous extracellular fluid perfusion in the recording tank, the drug to be tested can be superimposed and filled until the inhibitory effect of the drug on the hERG current reaches a steady state. Generally, the recent three consecutive current recording lines were recombined as a criterion for judging whether or not the state is stable. After reaching a steady state, extracellular fluid perfusion rinse until hERG current returns to the size before adding drug. One cell can test one or more drugs, or multiple concentrations of the same drug, but need to be flushed with extracellular fluid between different drugs. Cisapride (cisapride, purchased from Sigma) was used in the experiment as a positive control to ensure that the cells used were of normal quality. The test data was analysed by HEKA Patchmaster, Microsoft Excel and data analysis software provided by Graphpad Prism.

T1 sequence (P31749 whole entry): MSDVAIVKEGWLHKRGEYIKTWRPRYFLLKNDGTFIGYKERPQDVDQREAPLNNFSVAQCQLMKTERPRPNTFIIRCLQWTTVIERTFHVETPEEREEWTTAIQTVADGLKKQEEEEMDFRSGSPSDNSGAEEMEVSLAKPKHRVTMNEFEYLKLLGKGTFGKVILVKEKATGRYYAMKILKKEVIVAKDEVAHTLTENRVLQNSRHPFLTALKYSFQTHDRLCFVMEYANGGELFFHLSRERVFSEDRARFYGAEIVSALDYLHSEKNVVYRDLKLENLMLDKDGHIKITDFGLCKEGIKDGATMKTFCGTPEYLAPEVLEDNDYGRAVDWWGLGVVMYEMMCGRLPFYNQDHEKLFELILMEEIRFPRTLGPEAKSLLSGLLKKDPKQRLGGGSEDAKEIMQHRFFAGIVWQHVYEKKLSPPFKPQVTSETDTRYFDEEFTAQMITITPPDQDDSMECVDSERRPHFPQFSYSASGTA
T2 sequence (Q12809 whole entry): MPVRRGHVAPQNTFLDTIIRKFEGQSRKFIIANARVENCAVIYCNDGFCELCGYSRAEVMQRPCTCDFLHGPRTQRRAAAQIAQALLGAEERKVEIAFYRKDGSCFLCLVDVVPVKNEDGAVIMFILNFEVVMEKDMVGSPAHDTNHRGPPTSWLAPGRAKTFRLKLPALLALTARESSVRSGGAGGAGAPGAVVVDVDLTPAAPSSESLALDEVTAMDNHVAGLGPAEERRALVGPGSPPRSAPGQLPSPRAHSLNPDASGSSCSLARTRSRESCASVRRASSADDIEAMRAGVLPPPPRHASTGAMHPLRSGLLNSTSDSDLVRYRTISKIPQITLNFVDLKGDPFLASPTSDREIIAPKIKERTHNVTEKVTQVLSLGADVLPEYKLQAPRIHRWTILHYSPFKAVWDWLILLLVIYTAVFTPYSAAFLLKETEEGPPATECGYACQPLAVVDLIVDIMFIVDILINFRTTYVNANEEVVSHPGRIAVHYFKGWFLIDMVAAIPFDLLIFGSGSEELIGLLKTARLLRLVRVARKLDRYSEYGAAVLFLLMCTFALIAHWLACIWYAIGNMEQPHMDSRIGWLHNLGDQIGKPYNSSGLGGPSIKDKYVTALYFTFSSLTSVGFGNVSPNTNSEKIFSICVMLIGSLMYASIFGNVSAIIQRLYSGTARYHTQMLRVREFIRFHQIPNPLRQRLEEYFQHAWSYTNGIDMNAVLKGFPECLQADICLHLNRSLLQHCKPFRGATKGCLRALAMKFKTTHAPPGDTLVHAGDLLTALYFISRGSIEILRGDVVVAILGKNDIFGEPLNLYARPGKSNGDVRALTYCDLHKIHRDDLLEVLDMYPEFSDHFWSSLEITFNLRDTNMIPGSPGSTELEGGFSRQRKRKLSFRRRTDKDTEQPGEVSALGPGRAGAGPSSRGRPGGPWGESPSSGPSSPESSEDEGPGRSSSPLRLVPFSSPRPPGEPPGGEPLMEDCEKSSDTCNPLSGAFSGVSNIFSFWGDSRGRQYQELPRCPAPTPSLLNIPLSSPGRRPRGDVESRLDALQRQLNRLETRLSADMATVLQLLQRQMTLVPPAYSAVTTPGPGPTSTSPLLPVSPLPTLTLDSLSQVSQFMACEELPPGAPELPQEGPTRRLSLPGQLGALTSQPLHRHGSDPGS
Chain of Akt2 (P31751 whole entry): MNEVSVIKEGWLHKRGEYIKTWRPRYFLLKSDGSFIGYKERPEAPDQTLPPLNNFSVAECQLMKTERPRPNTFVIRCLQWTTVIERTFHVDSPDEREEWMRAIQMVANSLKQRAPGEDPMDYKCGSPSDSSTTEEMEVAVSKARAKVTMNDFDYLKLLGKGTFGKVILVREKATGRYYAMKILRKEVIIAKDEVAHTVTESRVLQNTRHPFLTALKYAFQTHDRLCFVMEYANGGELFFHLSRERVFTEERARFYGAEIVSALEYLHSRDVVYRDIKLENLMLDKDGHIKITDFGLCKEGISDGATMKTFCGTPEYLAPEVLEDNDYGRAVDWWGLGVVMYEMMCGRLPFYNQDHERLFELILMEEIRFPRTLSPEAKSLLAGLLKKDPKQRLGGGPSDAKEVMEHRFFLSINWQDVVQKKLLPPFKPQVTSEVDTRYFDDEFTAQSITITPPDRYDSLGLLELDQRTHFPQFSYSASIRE
Chain of Akt3 (Q9Y243 whole entry): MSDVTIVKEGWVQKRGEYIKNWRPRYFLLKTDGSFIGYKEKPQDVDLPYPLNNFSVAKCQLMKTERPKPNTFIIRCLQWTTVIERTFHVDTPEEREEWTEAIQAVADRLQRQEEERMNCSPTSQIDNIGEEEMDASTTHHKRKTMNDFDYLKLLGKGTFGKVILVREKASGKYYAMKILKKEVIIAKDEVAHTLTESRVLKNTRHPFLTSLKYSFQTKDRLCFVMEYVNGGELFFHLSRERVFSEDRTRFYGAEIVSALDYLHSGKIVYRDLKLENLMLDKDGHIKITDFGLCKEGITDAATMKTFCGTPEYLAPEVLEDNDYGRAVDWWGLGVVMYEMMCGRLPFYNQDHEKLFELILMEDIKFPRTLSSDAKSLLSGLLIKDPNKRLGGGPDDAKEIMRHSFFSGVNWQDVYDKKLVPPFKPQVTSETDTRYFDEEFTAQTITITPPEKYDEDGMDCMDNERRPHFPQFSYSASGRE

| SMILES | IC50 (AKT1/PKBα) [nM] | IC50 (HGC27) [nM] | IC50 (CEM-C1) [nM] | Kinase selectivity: (Akt2 inhibitory activity IC50)/(Akt1 inhibitory activity IC50) (Akt2) | Kinase selectivity: (Akt3 inhibitory activity IC50)/(Akt1 inhibitory activity IC50) (Akt3) | Kinase selectivity: (PKA inhibitory activity IC50)/(Akt1 inhibitory activity IC50) (PKA) | Kinase selectivity: (PKC inhibitory activity IC50)/(Akt1 inhibitory activity IC50) (PKC) | hERG (Inhibition rate at 3 μM concentration) (hERG potassium channel) [%] |
| --- | --- | --- | --- | --- | --- | --- | --- | --- |
| Cn1nccc1-c1cc(F)c(C(=O)N[C@@H]2CNCC[C@H]2c2ccc(F)c(F)c2)c(F)c1 [VII-12] | 10 to 50 | 50 | 210 | 5.5-times | 4.1-times | 1.3-times | – | – |
| Cn1ncc(Cl)c1-c1cc(C(=O)N[C@H](CN)Cc2ccc(F)c(F)c2)oc1Cl [GSK2141795, reference compound] | – | – | – | – | – | 1.2-times | 28-times | 50 |
